Assay results as given in patent publication US20240358719A1, “Formulations for Prolonging Gestation and for Complications of Menstruation or Gestation” (The Board of Trustees of the Leland Stanford Junior …, priority 2021, published 2024).
Entries after “also recorded” stand apart in the source; their conditions may differ. Structures can show the parent of a compound that is named as a salt.

Columns and labels:
[1] = system: uterine muscle strips from pregnant WT mice; assay: myography of mouse uterine muscle strips, spontaneous contraction
Procedure: (§1) Uterine muscle strips were extracted from pregnant mice and were assessed for contractibility via myography. Timed-pregnant wild-type C57/B6 mice were euthanized before making a vertical midline abdominal incision and removing each of the two uterine horns. Uterine horns were subsequently cut into 3-mm×7-mm segments and placed in a modified Krebs buffer (118 mM NaCl, […], 1.2 mM MgSO4, 1.2 mM KH2PO4, 2.5 mM CaCl2), 25 mM NaHCO3, and 11 mM glucose, pH 7.4). Muscle segments were vertically suspended on custom-made stainless steel hooks inside an organ bath filled with modified Krebs buffer, maintained at 37° C., and aerated with gas containing 95% O2 and 5% CO2. The strips were allowed to equilibrate at 1.5 g of tension for 45 min.
Provided in FIG. 5A are results of a myography experiment measuring spontaneous contraction. Myography of uterine muscle strips from pregnant WT mice at D18 was performed while incubating the strips with oxytocin (OXY), Vehicle, 0.25 μM μM of DHEA-S, 1 μM of THDOC, 1 μM of estriol-16-glucuronide, or 1 μM of androstane-3,17-diol. The area under the curve was calculated for the final 180 s of each 9-min contraction tracing using GraphPad Prism (GraphPad Prism for Macintosh version 5.0; GraphPad Software). The area under the curve for each response was then normalized to the area under the curve of the baseline.
Provided in FIG. 5E are myography tracings recorded with various compound applications: 10 μM progesterone, 1 μM Androstane-3,17-diol, 0.5 μM Androstane-3,17-diol+5 μM progesterone, and 0.33 μM Androstane-3,17-diol+0.33 μM THDOC+3.3 μM progesterone. Left of the arrow is baseline contraction and to the right of the arrow indicates when the compounds were applied. […] Note that there was no obvious effect when treating the muscle with 1 μM progesterone (data not shown).

pregnant C57BL/6 mice [2] = assay: mouse model of severe preterm birth (LPS 3 mg/kg); type: in vivo
Procedure: Provided in FIG. 7 is an experimental schematic of compound treatment in mouse models of severe preterm birth. In separate experiments, pregnant C57BL/6 mice were intraperitoneally administered 3 mg/kg LPS (Escherichia coli 0127: B8, chromatographically pure, Sigma-Aldrich) or PBS (as control) on D15. Treated mice were then treated with either intraperitoneal injections of vehicle (200 μl) or androstane-3,17-diol (1.5 mg/mouse, 200 μl) every 12 hours, up to 5 doses before delivery.
(§2) Provided in FIGS. 8A and 8B are an experimental schematic and results of tocolytic compound treatment in mouse models of severe preterm birth. In separate experiments, pregnant C57BL/6 mice were intraperitoneally administered 3 mg/kg LPS (Escherichia coli 0127: B8, chromatographically pure, Sigma-Aldrich) or PBS (as control) on D15. Treated mice were then treated with either intraperitoneal injections of vehicle or androstane-3,17-diol (1.5 mg/mouse). The androstane-3,17-diol group received androstane-3,17-diol via intraperitoneal injections every 24 hours, up to 3 days before delivery. One-third (33%) of LPS-induced preterm mice treated with androstane-3,17-diol reached full term.

pregnant C57BL/6 mice [3] = assay: gestation period in healthy control mice (no LPS); type: in vivo; conditions: 1.5 mg/mouse intraperitoneal every 24 hours
Procedure: as §2

[4] = system: human uterine smooth muscle cells; assay: collagen gel contraction assay with human uterine smooth muscle cells; type: cell-based; conditions: compound at 10 μM; oxytocin 100 nM, 18 hours
Procedure: The abilities of various hormonal steroids to inhibit human uterine smooth muscle cell contraction were assessed utilizing a collagen gel contraction assay. Collagen (150 μl) was aliquoted per well of a 48-well plate. After 1 hour of polymerization, 80,000 human uterine smooth muscle cells (SMCs), were added to each well in 300 μl of SmBM smooth muscle basic medium (Lonza) with vehicle (DMSO) or compounds (2.5 µM of DHEA-S, 10 µM of THDOC, 10 µM of estriol-16-glucuronide, 10 µM of androstane-3,17-diol, or 2 mM of progesterone). Collagen gels were exposed to oxytocin (100 nM) to stimulate uterine SMC contraction or PBS as control. After incubating for 1 hour at 37° C. and 5% CO2, the sides of the collagen gels were detached from the wells with sterile 200-μl pipette tips. After 18 hours, cells in collagen-coated wells were fixed with 4% paraformaldehyde solution for 30 min, then rinsed, and stored in PBS. Experiments were done multiple times (n=7), with duplicates for each condition. Surface area of each gel circle was measured using ImageJ. The areas were then expressed as a percentage relative to the area of no cell (collagen alone) control (set at 100%).
Each of the compounds assessed provided some ability to mitigate collagen retraction. […]

pregnant C57BL/6 mice [5] = assay: mouse model of moderate preterm birth (LPS 2 mg/kg); type: in vivo; conditions: LPS 2 mg/kg D15; for gestation after LPS: intraperitoneal every 8 hours, DHEA-S, THDOC 0.8 then 0.4 mg/mouse, androstane-3,17-diol 1.5 mg/mouse, combinations 0.75 mg/mouse each
Procedure: Provided in FIGS. 6A and 6B are an experimental schematic and results of compound treatment in mouse models of moderate preterm birth. Pregnant C57BL/6 mice were intraperitoneally administered 2 mg/kg LPS (Escherichia coli 0127:B8, chromatographically pure, Sigma-Aldrich) or PBS (as control) on D15. Mice were then treated with either intraperitoneal injections of vehicle (100 μl, 30% DMSO in pharmaceutical sesame oil), DHEA-S (first two doses at 0.8 mg/mouse, later doses at 0.4 mg/mouse, 100 μl), THDOC (first two doses at 0.8 mg/mouse, later doses at 0.4 mg/mouse, 100 μl), estriol-16-glucuronide (first two doses at 0.8 mg/mouse, later doses at 0.4 mg/mouse, 100 μl), androstane-3,17-diol (1.5 mg/mouse, 100 μl), Androstane-3,17-diol+progesterone (each at 0.75 mg/mouse, 100 μl), or DHEA-S+androstane-3,17-diol+progesterone (androstane-3,17-diol and progesterone each at 0.75 mg/mouse, DHEA-S at 0.27 mg/mouse for the first two doses and then 0.13 mg/mouse for the later does, 100 μl). Compound groups received the compounds via intraperitoneal injections every 8 hours, beginning 8 hours after LPS administration, up to 4 doses, and then after 12 hours before delivery.

[6] = system: uterine muscle strips from pregnant WT mice stimulated with oxytocin; assay: myography of mouse uterine muscle strips, oxytocin dose response; conditions: D18 strips
Procedure: as §1
For the oxytocin dose-response experiments, the strips were then stimulated with oxytocin at concentrations ranging from 1 to 1000 nM, and the pattern of contraction in response to each dose was recorded for 9 min. The muscle strips were washed with Krebs solution twice and allowed to equilibrate for 3 min before the next stimulation. In separate experiments, strips were treated with the compounds before assessing the dose response to oxytocin. Contraction tracings were recorded using PowerLab and LabChart (ADInstruments).
Provided in FIGS. 5B and 5C are results of a myography experiment measuring spontaneous contractions induced by oxytocin. […]

pregnant CD1 mice = assay: mouse model of preterm birth (CD1, LPS 1 mg/kg); type: in vivo; conditions: LPS 1 mg/kg D15, subcutaneous; for pups birthed from treated preterm model females: 4 doses; for gestation after LPS: 4 doses at 30 mg/kg (5α-DHT 3 mg/kg)
Procedure: Provided in FIGS. 9 and 9B are an experimental schematic and results of compound treatment in mouse models of preterm birth. Pregnant CD1 mice were intraperitoneally administered 1 mg/kg LPS (Escherichia coli 0127: B8, chromatographically pure, Sigma-Aldrich) or PBS (as control) on D15. Mice were then treated with either subcutaneous injections of vehicle (DMSO in pharmaceutical sesame oil), pregnenolone (Preg) (4 doses at 30 mg/kg), pregnenolone sulfate (PregS) (4 doses at 30 mg/kg), 7-methylguanine (4 doses at 30 mg/kg), or 5α-dihydrotestosterone (5α-DHT) (4 doses at 3 mg/kg). Compound groups received the compounds beginning 6 hours after LPS administration, then 6, 12, and 12 hours apart.

Compound: C[C@]12CC[C@@H](O)C[C@@H]1CC[C@@H]1[C@@H]2CC[C@]2(C)[C@@H](O)CC[C@@H]12 (stereo in doubt) [androstane-3,17-diol]
- muscle contractility, myography tracing ([1]; 1 μM): rapid inhibition of the muscle contraction
- suppression of uterine contractility (area under the curve normalized to baseline) ([1]; D18 strips, 0.25 μM DHEA-S, 1 μM THDOC, estriol-16-glucuronide or androstane-3,17-diol): most significant inhibition effect
- condition of mom and pups at full-term (pregnant C57BL/6 mice [2]; 1.5 mg/mouse intraperitoneal every 12 hours): looked healthy
- fraction of mice that reached full-term (pregnant C57BL/6 mice [2]; 1.5 mg/mouse intraperitoneal every 12 hours, up to 5 doses): ⅓
- LPS-induced preterm mice that reached full term (pregnant C57BL/6 mice [2]; 1.5 mg/mouse intraperitoneal every 24 hours, up to 3 days): 33%
- gestation period of healthy control mice (pregnant C57BL/6 mice [3]): increased gestation period beyond the typical date of delivery
- ability to mitigate collagen retraction [4]: best results
- pups birthed from treated preterm model females (pregnant C57BL/6 mice [5]; intraperitoneal): Full-term live pups
- rank of gestation result among treatments (pregnant C57BL/6 mice [5]; intraperitoneal): most significant results
- gestation after LPS (pregnant C57BL/6 mice [5]): prolonged gestation in vivo
- uterine contractility with oxytocin stimulation (AUC, amplitude) ([6]; 1 μM compound, increasing doses of oxytocin): reduced; also recorded: inhibits uterine muscle contraction

Compound: C[C@]12CCC(=O)C[C@@H]1CC[C@@H]1[C@@H]2CC[C@]2(C)[C@@H](O)CC[C@@H]12 [5α-DHT, 5α-dihydrotestosterone]
- pups birthed from treated preterm model females (pregnant CD1 mice): Full-term live pups
- gestation after LPS (pregnant CD1 mice): prolonged gestation in vivo

Compound: Cn1cnc2nc(N)[nH]c(=O)c21 [7-methylguanine]
- pups birthed from treated preterm model females (pregnant CD1 mice): Full-term live pups
- gestation after LPS (pregnant CD1 mice): prolonged gestation in vivo

Compound: C[C@]12CC[C@H](OS(=O)(=O)O)CC1=CC[C@@H]1[C@@H]2CC[C@]2(C)C(=O)CC[C@@H]12 [DHEA-S, dehydroisoandrosterone sulfate]
- pups birthed from treated preterm model females (pregnant C57BL/6 mice [5]; intraperitoneal): Full-term live pups
- gestation after LPS (pregnant C57BL/6 mice [5]): prolonged gestation in vivo

Compound: CC[C@H](C)[C@@H]1NC(=O)[C@H](Cc2ccc(O)cc2)NC(=O)[C@@H](N)CSSC[C@@H](C(=O)N2CCC[C@H]2C(=O)N[C@@H](CC(C)C)C(=O)NCC(N)=O)NC(=O)[C@H](CC(N)=O)NC(=O)[C@H](CCC(N)=O)NC1=O [Oxytocin, oxytocin, reference compound]
- effect of oxytocin on uterine contractility ([6]; 1 to 1000 nM oxytocin): dose-dependent increase in uterine contractility

Compound: C[C@]12CC[C@@H](O)C[C@H]1CC[C@@H]1[C@@H]2CC[C@]2(C)[C@@H](C(=O)CO)CC[C@@H]12 [THDOC, tetrahydrodeoxycorticosterone]
- gestation after LPS (pregnant C57BL/6 mice [5]): prolonged gestation in vivo

Compound: CC(=O)[C@H]1CC[C@H]2[C@@H]3CC=C4C[C@@H](OS(=O)(=O)O)CC[C@]4(C)[C@H]3CC[C@]12C [pregnenolone sulfate]
- pups birthed from treated preterm model females (pregnant CD1 mice): Full-term live pups
- rank of gestation result among treatments (pregnant CD1 mice; 4 doses at 30 mg/kg): most significant results, matching the untreated control
- gestation after LPS (pregnant CD1 mice): prolonged gestation in vivo

Compound: CC(=O)[C@H]1CC[C@H]2[C@@H]3CC=C4C[C@@H](O)CC[C@]4(C)[C@H]3CC[C@]12C [pregnenolone]
- gestation after LPS (pregnant CD1 mice): prolonged gestation in vivo

Compound: CC(=O)[C@H]1CC[C@H]2[C@@H]3CCC4=CC(=O)CC[C@]4(C)[C@H]3CC[C@]12C [progesterone, reference compound]
- muscle contractility, myography tracing ([1]; 1 μM): no effects
- muscle contractility, myography tracing ([1]; 10 μM): first enhanced and then gradually suppressed in peak height
- ability to mitigate collagen retraction [4]: no effect
